Where two headings read alike, the source gives them in different places.
Key:
[1] = tested on: Candida bombicola; type: cell-based; conditions: for number of colony forming units: ester 30 g/l in total
Method: A one litre baffled shake flask was filled with 200 ml medium according to Lang and co-workers (2000) and inoculated with Candida bombicola and left to grow at 30°C and 200 rpm. After 48 h 10 g/l Dodecyl glutarate was added. On day 5, 6 and 7 another 7.5 , 5 and 7.5 g/l ester was added. On day 10 the fermentation was stopped. The number of colony forming units was somewhat lower compared to fermentations on rapeseed oil or glucose. […] The sophorolipid yield as gravimetrically determined amounted 26 g/l. The residual ester concentration was 13 g/l. Dodecyl glutarate is a solid which was difficult to dose and tended to agglomerate, thus limiting the availability to Candida and probably causing part of the residual substrate. […] These peaks were identified by RP-HPLC-MS (Waters ZQ) using quadrupole electrospray negative ion detection (see figure 1). […] Both the lactonic and the acid diacetylated form were identified as well as traces of monoacetylated species. [formula]
To verify whether the ester or the glutaric acid which may be released following hydrolysis during the fermentation were toxic, 200 ml cultures were set up in one litre shaking flasks at 200 rpm. After 48 hours glutaric acid was added; 0, 10 or 100 %, the latter corresponding to the maximum amount of glutaric acid after hydrolysis of 30 g/l dodecyl glutarate (which equals the total amount of substrate added for synthesis). Eight days after the initial addition of glutaric acid the fermentation was stopped. […] It is therefore concluded that the toxicity of dodecyl glutarate is due to the product itself, rather than to hydrolysis products.
Taking into account the above results, a new experiment was set up in a Biostat B5 containing 3 litre medium to which 4g/l rapeseed oil was added in order to avoid toxic effects during the growth phase. From 48 hours onwards small portions of dodecyl glutarate, ester T0 in table 3 were added daily, totalling 145.5 gram during 7 days. Dodecyl glutarate has the same apparent chain length as stearic acid. After the last addition on day 8, the fermentation was run for another 48 hour and terminated 240 hours after the start. The fermentor was operated at 800 rpm mixing speed, 30°C and 1 vvm aeration, always assuring far higher oxygen concentrations than the 15% or less described in US6433152. After 140 hours the initial glucose was almost completely consumed and an additional 43 g/l was added. The pH was kept at 3.5 with 5 M NaOH and the oxygen saturation was varied between 70 and 85% during the production phase, rising 10 to 20 hours after each addition, which indicated the substrate was more or less consumed. The number of CFU in the production phase remained at approximately 6.10^9/ml, the dry cell weight at about 15 g/l, both values being considerably lower than typical values for rapeseed oil fermentations with resp. […] After about 200 hours more and more yeast cells changed aspect from the normal round shape to a flattened shape. This forms an indication of the stress the cells were experiencing due to the product formed and or the decreasing glucose concentration. […]
A new T2 batch was produced with increased care to completely remove the solvent. This batch was not toxic, with the number of CFU remaining stable (above 10^9/ml) over time, independent of the substrate concentration.
Shakeflask experiments with decyl heptanoate (ester T10 in table 2) gave similar results, indicating high toxicity for the first ester batch. […] The mass spectrometric analysis after alkaline hydrolysis of sophorolipids obtained from T10 ester, other than the obvious de novo sophorolipids and hydroxy dodecanoic acid is summarized in table 6 below. […] Note that again methyl terminated sophorolipids as well as sophorolipids with surplus glucose units were identified as de novo synthesized products. For both esters the dissolved oxygen concentration never came below 40% and averaged 65% (T2) and 63% (T10). […]

[2] = to clarify 100 ml AD solution of 2.5 wt. % laureth sulphate and 10% NaOH
Method: In this example the amount of hydrotrope needed to clarify a 100 ml AD solution of 2.5 wt. % laureth sulphate and 10% NaOH.

[3] = tested on: M. furfur; assay: Minimal inhibitory concentration, agar dilution with olive oil overlay; type: cell-based; conditions: 48 hours at 37°C, Sabouraud's dextrose agar with olive oil
Method: The yeast M. furfur is one of the natural causes of dandruff formation. Since it is a lipophilic yeast, the in vitro growth must be stimulated by natural oils or other fatty substances when determining minimal inhibitory concentrations (MIC). We used the most common method, which is to overlay Sabouraud's dextrose agar containing cycloheximide (actidione) with olive oil.
A dilution series (1, ½ ¼, 1/8, 1/16..) was prepared. One ml of this dilution was added to 3 petri dishes per concentration and mixed with the warm agar. After cooling a drop of the yeast culture suspension was dropped on the petri dish and left to grow for 48 hours at 37°C.
The MIC was determined for azelaic acid (pa VWR) neutralized with NaOH, azelaic mixture with SL9:0 (from ex.O.1) and calcium purified azelaic mixture with SL9:0. Whereas a 30% azelaic solution was needed for complete inhibition was needed, only 20% of the (SL9-azelaic) mixture of ex.O.1 was needed.

[4] = shake flask, new/improved ester batch, solvent removed
[5] = shake flask, 10 or 100 % of the amount released from 30 g/l dodecyl glutarate, 8 days

## CCCCCCCCCCOC(=O)CCCCCC [decyl heptanoate]
[1]; shake flask, first ester batch
  substrate toxicity: high toxicity
[1]; shake flask, improved batch, after reduction
  number of CFU: 3 x 10^9 CFU/ml
[1]; shake flask, improved batch, before reduction
  number of CFU: 6,5 x 10^9 CFU/ml
[1]; [4]
  substrate toxicity: slightly toxic

## CCCCCCCCCCCCOC(=O)CCCC(=O)O [dodecyl glutarate, Dodecyl glutarate]
[1]; Biostat B5 fermentor
  toxicity: moderate toxicity
[1]; Biostat B5 fermentor, 145.5 gram ester during 7 days
  number of CFU in the production phase: approximately 6.10^9 /ml
[1]; Biostat B5 fermentor, production phase
  dry cell weight: about 15 g/l
[1]; shake flask fermentation
  toxicity effect of the ester: moderate toxicity effect
[1]; shake flask, at the end of the experiment (day 10)
  number of colony forming units: ~1.10^9 /ml
[1]; shake flask, value before the drop (printed 'approx. 4', x 10^9 implied)
  number of colony forming units: approx. 4 /ml

## CCCCCCCCCCCCOC(=O)CCCC [dodecyl pentanoate]
[1]; shake flask, first ester batch
  substrate concentration from which toxicity was shown: ≥ 10 mM
  substrate toxicity: pronounced substrate toxicity
[1]; shake flask, new batch, stable over time, independent of substrate concentration
  number of CFU: above 10^9 /ml
[1]; [4]
  substrate toxicity: not toxic

## O=C(O)CCCC(=O)O [glutaric acid, reference compound]
[1]; [5]
  growth in terms of colony forming units: did not inhibit growth
  sophorolipid production by Candida bombicola: nor did it lower the sophorolipid production

## CCO [Ethanol]
[2]
  % active matter needed: 26%

## O=C(O)CCCCCCCC(=O)O [azelaic acid]
[3]
  MIC (lowest concentration which completely inhibits growth): 30%
